In paper PMC10655391, “Inhibition of Hsp110-STAT3 interaction in endothelial cells alleviates vascular remodeling in hypoxic pulmonary arterial Hypertension model” (Respiratory Research, 2023) one finds inhibition data, which are given here for two compounds.

For this test, the target named is T1, Hsp110 (Homo sapiens, UniProt Q92598).
T1 construct: gene HSPH1; purified recombinant human Hsp110 (His6-SUMO tag cleaved)
Briefly: luciferase anti-aggregation assay with purified Hsp110 at […] (single concentration). In kind it is biochemical. As to conditions: read-out: % reduction of anti-aggregating activity at 100 μM.

Where only a bound is given, the exact number is not on record here.

T1 sequence (Q92598 whole entry): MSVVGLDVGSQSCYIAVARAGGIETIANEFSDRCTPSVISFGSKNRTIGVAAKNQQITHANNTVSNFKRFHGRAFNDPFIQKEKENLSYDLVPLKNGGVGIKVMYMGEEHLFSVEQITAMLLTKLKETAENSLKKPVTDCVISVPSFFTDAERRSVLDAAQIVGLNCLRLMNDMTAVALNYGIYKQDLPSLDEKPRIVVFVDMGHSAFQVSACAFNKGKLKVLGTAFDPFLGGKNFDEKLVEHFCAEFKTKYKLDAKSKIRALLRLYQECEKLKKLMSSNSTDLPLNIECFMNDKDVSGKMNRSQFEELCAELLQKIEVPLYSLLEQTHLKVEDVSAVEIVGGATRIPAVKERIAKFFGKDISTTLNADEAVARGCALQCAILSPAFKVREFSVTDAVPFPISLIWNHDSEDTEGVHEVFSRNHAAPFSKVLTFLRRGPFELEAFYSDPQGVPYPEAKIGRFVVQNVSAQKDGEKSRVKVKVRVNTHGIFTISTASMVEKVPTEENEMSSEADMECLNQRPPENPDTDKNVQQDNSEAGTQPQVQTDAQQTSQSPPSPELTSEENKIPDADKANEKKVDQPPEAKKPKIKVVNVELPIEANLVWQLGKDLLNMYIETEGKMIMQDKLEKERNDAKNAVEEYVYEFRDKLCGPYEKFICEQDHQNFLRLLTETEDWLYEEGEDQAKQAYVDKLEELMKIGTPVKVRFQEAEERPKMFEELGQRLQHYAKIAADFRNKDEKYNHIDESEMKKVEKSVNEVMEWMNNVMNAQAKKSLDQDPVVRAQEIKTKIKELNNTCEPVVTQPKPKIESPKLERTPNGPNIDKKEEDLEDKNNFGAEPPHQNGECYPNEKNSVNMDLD

Consider `Cc1nn(-c2ccccc2)c2nc(OCc3cnc(Cl)s3)c(-c3nc(N)cc(N)n3)cc12` [compound 8], for which the inhibition at 100 µM was more than 50%. For `Cc1ccccc1COc1nc2c(cc1-c1nc(N)cc(N)n1)c(C)nn2-c1ccccc1` [compound 5], the inhibition at 100 µM is more than 50%.
